MIC data for ten compounds are collected here from DBAASP.

Among the test systems are Bacillus subtilis; Escherichia coli; Acinetobacter baumannii; Escherichia coli UB1005; Pseudomonas aeruginosa; Staphylococcus aureus.
Common to all, as to assay: ≥ marks a high value that may be exact or a test limit, other limits are often not marked, values filed in µg/mL are converted to µM
The subject of assay [1] is Micrococcus luteus ATCC 9341.
In assay [2] the test system is Escherichia coli ATCC 25922.
Assay [3] concerns Staphylococcus aureus ATCC 33591.
In assay [4] the test system is Salmonella enterica subsp. enterica serovar Typhimurium C77-31.
Assay [5] deals with Staphylococcus aureus ATCC 25923.
Assay [6] relates to Staphylococcus aureus ATCC 29213.
For assay [7], the system named is Staphylococcus epidermidis ATCC 12228.

SMILES strings stand for the structures. In brackets after ≈: the same amount, converted by molar mass. Bounds are passed on as bounds.

Usually MIC stands for the lowest concentration that inhibits growth of the organism. High values mean a need for much substance, low ones inhibition by little substance. As for `CC[C@H](C)[C@H](N)C(=O)N[C@@H](CC(C)C)C(=O)N1CCC[C@H]1C(=O)N[C@@H](Cc1c[nH]c2ccccc12)C(=O)N[C@@H](CC(=O)O)C(=O)N[C@@H](Cc1c[nH]c2ccccc12)C(=O)N1CCC[C@H]1C(=O)N[C@@H](Cc1c[nH]c2ccccc12)C(=O)N[C@@H](Cc1c[nH]c2ccccc12)C(=O)N1CCC[C@H]1C(=O)N[C@@H](Cc1c[nH]c2ccccc12)C(=O)N[C@@H](CC(=O)O)C(=O)N[C@@H](CC(=O)O)C(N)=O` [ILPWDWPWWPWDD], the MIC in assay [1] was at least 100 µM.
In the case of `CC[C@H](C)[C@H](N)C(=O)N[C@@H](CC(C)C)C(=O)N1CCC[C@H]1C(=O)N[C@@H](Cc1c[nH]c2ccccc12)C(=O)N[C@@H](CCC(=O)O)C(=O)N[C@@H](Cc1c[nH]c2ccccc12)C(=O)N1CCC[C@H]1C(=O)N[C@@H](Cc1c[nH]c2ccccc12)C(=O)N[C@@H](Cc1c[nH]c2ccccc12)C(=O)N1CCC[C@H]1C(=O)N[C@@H](Cc1c[nH]c2ccccc12)C(=O)N[C@@H](CCC(=O)O)C(=O)N[C@@H](CCC(=O)O)C(N)=O` [ILPWEWPWWPWEE], in assay [1], the MIC was at least 100 µM.
Take `CC[C@H](C)[C@H](N)C(=O)N[C@@H](CC(C)C)C(=O)N1CCC[C@H]1C(=O)N[C@@H](Cc1c[nH]c2ccccc12)C(=O)N[C@@H](CCCCN)C(=O)N[C@@H](Cc1c[nH]c2ccccc12)C(=O)N1CCC[C@H]1C(=O)N[C@@H](Cc1c[nH]c2ccccc12)C(=O)N[C@@H](Cc1c[nH]c2ccccc12)C(=O)N1CCC[C@H]1C(=O)N[C@@H](Cc1c[nH]c2ccccc12)C(N)=O` [ILPWKWPWWPW]: the MIC in [1] stood at 0.8 µM (≈ 1.28 µg/mL).
Regarding `CC[C@H](C)[C@H](N)C(=O)N[C@@H](CC(N)=O)C(=O)N[C@@H](Cc1c[nH]c2ccccc12)C(=O)N[C@@H](CO)C(=O)N[C@@H](CCCCN)C(=O)N[C@H](C(=O)N[C@@H](Cc1ccccc1)C(=O)N[C@@H](CCC(=O)O)C(=O)N[C@@H](CCCCN)C(=O)N[C@H](C(=O)N[C@@H](CCCCN)C(=O)N[C@@H](CC(N)=O)C(=O)N[C@@H](CC(C)C)C(=O)N[C@H](C(N)=O)C(C)C)C(C)C)[C@@H](C)CC` [INWSKIFEKVKNLV], the MIC against Bacillus subtilis is 17 µM (≈ 29.2 µg/mL); with Escherichia coli, 12.5 µM (≈ 21.5 µg/mL).
With `CC[C@H](C)[C@H](NC(=O)[C@@H](N)CCCCN)C(=O)N[C@@H](Cc1c[nH]c2ccccc12)C(=O)N[C@@H](Cc1ccccc1)C(=O)N[C@@H](CCC(N)=O)C(=O)N[C@@H](CC(N)=O)C(=O)N[C@@H](CCCCN)C(=O)N[C@@H](CCCCN)C(=O)N[C@@H](CCSC)C(=O)N[C@@H](CCCCN)C(=O)N[C@@H](Cc1c[nH]c2ccccc12)C(=O)N[C@@H](CCCCN)C(=O)N[C@@H](CCCCN)C(N)=O` [KIWFQNKKMKWKK], the results for the MIC in assay [2] and in assay [3] were 256 µM (≈ 459 µg/mL) and at least 256 µM, respectively.
With `CC[C@H](C)[C@@H]1NC(=O)[C@@H]2CSSC[C@@H]3NC(=O)[C@H](Cc4ccccc4)NC(=O)[C@H](CO)NC(=O)[C@H](CO)NC(=O)[C@H](C(C)C)NC(=O)[C@H](C(C)C)NC(=O)[C@@H]4CCCN4C(=O)[C@@H](NC(=O)[C@H](CCSC)NC(=O)[C@H](Cc4ccc(O)cc4)NC(=O)[C@H](CCC(=O)O)NC(=O)[C@H](CO)NC(=O)[C@H](CCCCN)NC(=O)[C@H](CC(N)=O)NC(=O)[C@H](CC(C)C)NC(=O)[C@@H](NC(=O)[C@H](CCC(=O)O)NC(=O)[C@H](CCCCN)NC(=O)[C@@H](NC(=O)[C@H](CCCCN)NC(=O)[C@H](CC(=O)O)NC(=O)[C@@H](NC(=O)[C@H](C)NC(=O)[C@H](CCC(N)=O)NC(=O)[C@H](CC(N)=O)NC(=O)[C@H](CC(C)C)NC(=O)[C@H](CCCCN)NC(=O)[C@H](CCCCN)NC(=O)[C@H](CCCCN)NC(=O)[C@H](CC(C)C)NC(=O)[C@H](CCCCN)NC(=O)[C@H](CCC(N)=O)NC(=O)CNC(=O)[C@@H](NC(=O)[C@@H](NC(=O)[C@H](CO)NC(=O)[C@@H](N)CCCCN)[C@@H](C)O)C(C)C)C(C)C)C(C)C)C(C)C)CSSC[C@H](NC(=O)[C@H](CCC(N)=O)NC(=O)CNC(=O)[C@H](CO)NC(=O)[C@H](CCCCN)NC(=O)CNC(=O)[C@H](CC(C)C)NC(=O)[C@H](CCCN=C(N)N)NC(=O)[C@H](C)NC(=O)[C@H](CSSC[C@@H](C(=O)O)NC1=O)NC(=O)[C@H](Cc1cnc[nH]1)NC(=O)[C@H](CCC(N)=O)NC(=O)[C@H](CCCCN)NC3=O)C(=O)N[C@@H](CC(=O)O)C(=O)N[C@@H](CC(C)C)C(=O)N[C@@H](CC(C)C)C(=O)N[C@@H](CCC(=O)O)C(=O)N2` [KSTVGQKLKKKLNQAVDKVKEVLNKSEYMCPVVSSFCKQHCARLGKSGQCDLLECIC], the MIC against Bacillus subtilis is 0.5 µM (≈ 3.17 µg/mL).
Consider `CC[C@H](C)[C@H](NC(=O)[C@H](CO)NC(=O)[C@H](C)NC(=O)[C@@H](NC(=O)[C@H](CCCCN)NC(=O)[C@H](CCCCN)NC(=O)[C@H](Cc1c[nH]c2ccccc12)NC(=O)[C@H](CC(N)=O)NC(=O)[C@@H](N)CO)[C@@H](C)CC)C(=O)NCC(=O)N[C@@H](CCCCN)C(=O)N[C@@H](CCC(=O)O)C(=O)N[C@H](C(=O)N[C@@H](CC(C)C)C(=O)N[C@@H](CCCCN)C(=O)N[C@@H](C)C(=O)N[C@@H](CC(C)C)C(N)=O)C(C)C` [SNWKKIASIGKEVLKAL], for which the MIC in the assay with Bacillus subtilis worked out at 30 µM (≈ 56.5 µg/mL); in the assay with Escherichia coli it was 25 µM (≈ 47.1 µg/mL).
Take `NC(=O)[C@H](CCCN=C(N)N)NC(=O)[C@H](CCCN=C(N)N)NC(=O)[C@H](Cc1c[nH]c2ccccc12)NC(=O)[C@@H]1CCCN1C(=O)[C@H](Cc1c[nH]c2ccccc12)NC(=O)[C@H](Cc1c[nH]c2ccccc12)NC(=O)[C@@H]1CCCN1C(=O)[C@@H](N)Cc1c[nH]c2ccccc12` [WPWWPWRR]: the minimum inhibitory concentration (MIC) in assay [1] turned out to be 1.6 µM (≈ 2.03 µg/mL).
`CC(C)C[C@H](NC(=O)[C@H](CCCN=C(N)N)NC(=O)[C@H](Cc1c[nH]c2ccccc12)NC(=O)[C@H](CCCN=C(N)N)NC(=O)[C@@H](NC(=O)[C@H](CCCN=C(N)N)NC(=O)[C@H](Cc1c[nH]c2ccccc12)NC(=O)[C@H](CCCN=C(N)N)NC(=O)[C@H](CC(C)C)NC(=O)[C@H](CCCN=C(N)N)NC(=O)[C@@H](N)Cc1c[nH]c2ccccc12)[C@@H](C)O)C(=O)N[C@@H](CCCN=C(N)N)C(N)=O` [WRLRWRTRWRLR]: the MIC against Acinetobacter baumannii was 4 µM (≈ 7.36 µg/mL); in assay [2], 4 µM (≈ 7.36 µg/mL); with Escherichia coli UB1005, 4 µM (≈ 7.36 µg/mL); in the assay on Escherichia coli it was 2 µM (≈ 3.68 µg/mL); with Pseudomonas aeruginosa it was 16 µM (≈ 29.4 µg/mL); in assay [4], 4 µM (≈ 7.36 µg/mL). Besides, the MIC (in assay [5]; in assay [6]; against Staphylococcus aureus; in [7]) was 2 µM (≈ 3.68 µg/mL) in each case.
With `CC(C)[C@H](NC(=O)[C@H](CCCN=C(N)N)NC(=O)[C@H](Cc1c[nH]c2ccccc12)NC(=O)[C@H](CCCN=C(N)N)NC(=O)[C@@H](NC(=O)[C@H](CCCCN)NC(=O)[C@H](Cc1c[nH]c2ccccc12)NC(=O)[C@H](CCCN=C(N)N)NC(=O)[C@@H](NC(=O)[C@H](CCCN=C(N)N)NC(=O)[C@@H](N)Cc1c[nH]c2ccccc12)C(C)C)C(C)C)C(=O)N[C@@H](CCCCN)C(N)=O` [WRVRWKVRWRVK], the MIC was 2.83 µM (≈ 4.96 µg/mL) in the assay on Acinetobacter baumannii; 4 µM (≈ 7.02 µg/mL) in assay [2]; 2 µM (≈ 3.51 µg/mL) in the assay on Escherichia coli UB1005; 1 µM (≈ 1.75 µg/mL) in the assay with Escherichia coli; 4 µM (≈ 7.02 µg/mL) with Pseudomonas aeruginosa; 2 µM (≈ 3.51 µg/mL) in assay [4]. Moreover, the MIC in [5] was 2 µM (≈ 3.51 µg/mL); in [6] it was 1 µM (≈ 1.75 µg/mL); against Staphylococcus aureus it was 2 µM (≈ 3.51 µg/mL); in assay [7], 2 µM (≈ 3.51 µg/mL).
